PubChem BioAssay (NCI)
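1) Cells in 96-well plates. 2) Compound, 48 h, 5 concentrations. 3) Linear interpolation between surrounding doses. 4) Unreached endpoint = highest concentration. The concentration for full growth arrest is given as TGI.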

Experiments:
Test in all cases: DTP human tumour cell line panel, 48 h
[1] = tested on: 786-0 renal
[2] = tested on: A549 NSCLC
[3] = tested on: ACHN renal
[4] = tested on: CAKI-1 renal
[5] = tested on: COLO 205 colon
[6] = tested on: DLD-1 colon
[7] = tested on: DMS 114 small cell lung
[8] = tested on: DMS 273 small cell lung
[9] = tested on: EKVX NSCLC
[10] = tested on: HCC-2998 colon
[11] = tested on: HL-60(TB) leukemia
[12] = tested on: HOP-18 NSCLC
[13] = tested on: HOP-62 NSCLC
[14] = tested on: HOP-92 NSCLC
[15] = tested on: HT29 colon
[16] = tested on: KM12 colon
[17] = tested on: KM20L2 colon
[18] = tested on: LOX IMVI melanoma
[19] = tested on: LXFL 529 NSCLC
[20] = tested on: M14 melanoma
[21] = tested on: M19-MEL melanoma
[22] = tested on: MALME-3M melanoma
[23] = tested on: NCI-H226 lung
[24] = tested on: NCI-H23 lung
[25] = tested on: NCI-H460 lung
[26] = tested on: NCI-H522 lung
[27] = tested on: OVCAR-3 ovarian
[28] = tested on: OVCAR-4 ovarian
[29] = tested on: OVCAR-5 ovarian
[30] = tested on: OVCAR-8 ovarian
[31] = tested on: RXF 393 renal
[32] = tested on: SF-268 CNS
[33] = tested on: SF-295 CNS
[34] = tested on: SF-539 CNS
[35] = tested on: SK-MEL-2 melanoma
[36] = tested on: SK-MEL-28 melanoma
[37] = tested on: SN12C renal
[38] = tested on: SNB-19 CNS
[39] = tested on: SNB-75 CNS
[40] = tested on: SNB-78 CNS
[41] = tested on: SR leukemia
[42] = tested on: SW-620 colon
[43] = tested on: TK-10 renal
[44] = tested on: U251 CNS
[45] = tested on: UACC-257 melanoma
[46] = tested on: UO-31 renal
[47] = tested on: A498 renal
[48] = tested on: CCRF-CEM leukemia
[49] = tested on: HCT-116 colon
[50] = tested on: HCT-15 colon
[51] = tested on: IGROV1 ovarian
[52] = tested on: K-562 leukemia
[53] = tested on: MOLT-4 leukemia
[54] = tested on: RPMI-8226 leukemia
[55] = tested on: SK-MEL-5 melanoma
[56] = tested on: SK-OV-3 ovarian
[57] = tested on: UACC-62 melanoma
[58] = tested on: XF 498 CNS

COC(=O)C1C(/C=C/c2ccoc2)ON2CCC[C@@H]12 (some centres not stated)
TGI [1]: > 100 µM
TGI [2]: > 100 µM
TGI [3]: > 100 µM
TGI [4]: > 100 µM
TGI [5]: > 100 µM
TGI [6]: > 100 µM
TGI [7]: > 100 µM
TGI [8]: > 100 µM
TGI [9]: > 100 µM
TGI [10]: > 100 µM
TGI [11]: > 100 µM
TGI [12]: 98 µM
TGI [13]: > 100 µM
TGI [14]: > 100 µM
TGI [15]: > 100 µM
TGI [16]: > 100 µM
TGI [17]: > 100 µM
TGI [18]: > 100 µM
TGI [19]: > 100 µM
TGI [20]: > 100 µM
TGI [21]: > 100 µM
TGI [22]: > 100 µM
TGI [23]: > 100 µM
TGI [24]: > 100 µM
TGI [25]: > 100 µM
TGI [26]: > 100 µM
TGI [27]: > 100 µM
TGI [28]: > 100 µM
TGI [29]: > 100 µM
TGI [30]: > 100 µM
TGI [31]: > 100 µM
TGI [32]: > 100 µM
TGI [33]: > 100 µM
TGI [34]: > 100 µM
TGI [35]: > 100 µM
TGI [36]: > 100 µM
TGI [37]: > 100 µM
TGI [38]: > 100 µM
TGI [39]: > 100 µM
TGI [40]: > 100 µM
TGI [41]: > 100 µM
TGI [42]: > 100 µM
TGI [43]: > 100 µM
TGI [44]: > 100 µM
TGI [45]: > 100 µM
TGI [46]: > 100 µM

NNC(=S)N/N=C(/C(=O)Nc1ccc([N+](=O)[O-])cc1)c1nc2ccc([N+](=O)[O-])cc2[nH]c1=O
TGI [1]: > 100 µM
TGI [47]: > 100 µM
TGI [2]: > 100 µM
TGI [3]: > 100 µM
TGI [4]: > 100 µM
TGI [48]: > 100 µM
TGI [5]: > 100 µM
TGI [6]: > 100 µM
TGI [7]: > 100 µM
TGI [9]: > 100 µM
TGI [10]: > 100 µM
TGI [49]: > 100 µM
TGI [50]: > 100 µM
TGI [11]: > 100 µM
TGI [12]: > 100 µM
TGI [14]: > 100 µM
TGI [15]: > 100 µM
TGI [51]: > 100 µM
TGI [52]: > 100 µM
TGI [16]: > 100 µM
TGI [18]: > 100 µM
TGI [20]: > 100 µM
TGI [21]: > 100 µM
TGI [22]: > 100 µM
TGI [53]: > 100 µM
TGI [23]: > 100 µM
TGI [24]: > 100 µM
TGI [25]: > 100 µM
TGI [26]: > 100 µM
TGI [28]: > 100 µM
TGI [29]: > 100 µM
TGI [30]: > 100 µM
TGI [54]: > 100 µM
TGI [32]: > 100 µM
TGI [33]: > 100 µM
TGI [34]: > 100 µM
TGI [35]: > 100 µM
TGI [36]: > 100 µM
TGI [55]: > 100 µM
TGI [56]: > 100 µM
TGI [37]: > 100 µM
TGI [39]: > 100 µM
TGI [40]: > 100 µM
TGI [41]: > 100 µM
TGI [42]: > 100 µM
TGI [43]: > 100 µM
TGI [44]: > 100 µM
TGI [45]: > 100 µM
TGI [57]: > 100 µM
TGI [46]: > 100 µM
TGI [58]: > 100 µM
